Entries after “also recorded” stand apart in the source; their conditions may differ. Peptide text beside a SMILES is read from it. * marks the point of attachment. AMC = Cc1cc(=O)oc2cc(N*)ccc12
Experiments:
SKI-1 = conditions: Seidah et al., 1999, preliminary data; cited from earlier work
purified S1P(983)-C = target: T1, purified S1P(983)-C (Cricetulus griseus, UniProt Q9Z2A8, T875N); test: Fluorogenic peptide assay for S1P activity (cleavage of MCA-conjugated peptides); format: biochemical, hamster
T1 construct: Truncated S1P (amino acids 1-983); GGR linker (NotI site); made in house; host or cells: SRD-12B cells (mutant CHO cells lacking S1P) stably transfected with pCMV-S1P(983)-Myc-His (TR-3117, 'S1P(983) cells'); secreted into the medium and purified on Ni-NTA
T1 sequence (Q9Z2A8 187-983 T875N): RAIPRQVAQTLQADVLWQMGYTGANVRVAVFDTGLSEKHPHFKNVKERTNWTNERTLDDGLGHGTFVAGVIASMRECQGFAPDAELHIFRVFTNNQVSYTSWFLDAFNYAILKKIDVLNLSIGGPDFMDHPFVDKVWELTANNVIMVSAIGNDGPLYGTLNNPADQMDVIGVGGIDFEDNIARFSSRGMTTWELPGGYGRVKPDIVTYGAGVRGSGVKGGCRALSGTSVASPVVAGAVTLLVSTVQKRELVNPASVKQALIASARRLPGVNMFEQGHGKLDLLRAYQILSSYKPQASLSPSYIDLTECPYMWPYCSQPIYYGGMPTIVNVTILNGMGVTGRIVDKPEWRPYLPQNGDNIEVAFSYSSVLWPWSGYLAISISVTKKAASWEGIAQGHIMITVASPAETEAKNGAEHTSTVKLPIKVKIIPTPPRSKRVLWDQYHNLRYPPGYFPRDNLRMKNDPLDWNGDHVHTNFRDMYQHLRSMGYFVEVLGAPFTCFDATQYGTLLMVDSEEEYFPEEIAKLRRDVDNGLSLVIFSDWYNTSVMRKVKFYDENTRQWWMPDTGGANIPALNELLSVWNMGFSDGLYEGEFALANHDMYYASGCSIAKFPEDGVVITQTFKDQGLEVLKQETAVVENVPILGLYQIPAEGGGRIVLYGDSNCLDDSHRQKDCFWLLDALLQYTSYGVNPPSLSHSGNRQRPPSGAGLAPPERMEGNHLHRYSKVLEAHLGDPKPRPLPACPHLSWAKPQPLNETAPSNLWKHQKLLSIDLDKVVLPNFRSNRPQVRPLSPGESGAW
Experimental: Fluorogenic Peptide Assay for S1P Activity
S1P activity was measured fluorometrically with MCA-conjugated peptidyl substrates. Each reaction was carried out in 0.2 ml of assay buffer (25 mM Tris, 25 mM Mes, 25 mM acetic acid, and 1 mM CaCl2 adjusted to pH 8.0 with concentrated NaOH). Reactions contained MCA-peptide (final concentration 100 μM, added in 2 μl DMSO) and […] of purified S1P(983)-C. After incubation for 0.5-5 h at 37° C., each reaction was terminated by addition of 1 ml of ice-cold 5 mM sodium EDTA. The liberated 7-amino-4-methyl-coumarin (AMC) was measured with a Perkin-ElmerLS-30 luminescence spectrometer (360 nm excitation, 460 nm emission). A standard curve of fluorescence intensity was generated with different concentrations of AMC (Promega).
Similar substrates have been used to assay furin, prohormone convertases, and other subtilisin-related enzymes (Nakayama, 1997). […] The sequence of this peptide corresponds to the sequence at Site-B of S1P, which is known to be cleaved by S1P in an autocatalytic reaction. Fluorescence rose linearly with time for 5 h. […] This differs from the observations with furin and the prohormone convertases, whose pH optima are generally in the range of 6-7 (Nakayama, 1997).
The indicated fluorogenic peptide-MCA (100 μM) was incubated with 3 μg of purified S1P(983)-C at 37° C. for 5 h. The S1P activity of Ac-VFRSLK-MCA (SEQ ID NO:13, 930 pmol per min/mg protein) was set at 1.0, and the activity of the other substrates was expressed relative to this value. Each value represents the average of duplicate incubations, which varied from each other by <10%.

furin = conditions: cited from earlier work
[1] = tested on: PLAP-BP2(513-1141) in SRD-12B cells; test: Secreted alkaline phosphatase assay in SRD-12B cells transfected with wild-type or mutant S1P cDNAs; format: cell-based, hamster; conditions: Myc-tagged S1P cDNA
SREBP-2 = test: Immunoblot of cleavage of HSV-tagged SREBP-2 in transfected SRD-12B cells; format: cell-based, hamster; conditions: SRD-12B cells, HSV-tagged SREBP-2
Experimental: On day 0, SRD-12B cells were set up at a density of 6×10^5 cells/60-mm dish in medium B. On day 1, cells were transfected with 4 μg of the indicated plasmid DNA plus 12 μl of LipofectAMINE™ reagent (Life Technologies) according to the manufacturer's instructions with modifications as follows. LipofectAMINE™/DNA complexes were formed in 1 ml of serum-free medium for 15 min at room temperature, and 0.5 ml were added to 1 ml of serum-free medium per dish. […] After incubation at 37 ° C. for 20 h, the cells received N-acetyl-leucinal-leucinal norleucinal (ALLN) at a final concentration of 25 μg/ml. […] After boiling for 5 min, the proteins were subjected to SDS-PAGE and transferred to Hybond-C Extra nitrocellulose filters (Amersham). The filters were incubated with the antibodies described in the figure legends. […] Gels were calibrated with prestained molecular weight markers (New England Biolabs, Beverly, Mass.). Filters were exposed to X-Omat Blue XB-1 film (Kodak, Rochester, N.Y.) with intensifying screens at room temperature for the indicated time.
Cell membranes and nuclear extracts were subjected to electrophoresis and blotted with an antibody against the HSV epitope-tag.
In a more direct test for S1P catalytic activity, the mutant plasmids were transfected into the SRD-12B cells together with pTK-HSV-BP2. Membranes and nuclear extracts were subjected to SDS-PAGE and blotted with an antibody against the HSV-tagged SREBP-2 (FIG. 9B).
The inventors cotransfected cDNAs encoding wild-type S1P or one of the mutants. Cell membrane pellets and nuclear extracts were subjected to SDS-PAGE. and the NH2 -terminus of SREBP-2 was visualized by immunoblotting with anti-HSV (FIG. 16A).

Molecule: 27-amino acid synthetic peptide: 27-amino acid synthetic peptide corresponding to the luminal loop sequence of human SREBP-2 (GGAHDSDQHPHSGSGRSVLSFESGSGG)
- cleavage by SKI-1 culture medium (SKI-1): able to cleave

Molecule: CC(=O)N[C@@H](CCCNC(=N)N)C(=O)N[C@@H](CO)C(=O)N[C@H](C(=O)N[C@@H](CC(C)C)C(=O)Nc1ccc2c(C)cc(=O)oc2c1)C(C)C [Ac-RSVL-MCA, Ac-Arg-Ser-Val-Leu-MCA] (Ac-RSVL-{AMC})
- Relative Activity (purified S1P(983)-C; 100 μM peptide-MCA, 3 μg S1P(983)-C, 37° C., 5 h, Ac-VFRSLK-MCA set at 1.0): < 0.1
- cleavage of the peptide (purified S1P(983)-C; result in words): did not cleave; also recorded: does not cleave
- cleavage by SKI-1 culture medium (SKI-1): unable to cleave

Molecule: O=C(O)CN(CCN(CC(=O)O)CC(=O)O)CC(=O)O [EDTA]
- inhibition of furin (furin; Nakayama, 1997, Molloy et al., 1992): totally inhibited

Molecule: furin: subtilisin-like protease, literature comparator
- Kcat (furin in a similar assay) (furin; Molloy et al., 1992): 1.6 mol/min per mol of enzyme
- pH optimum (furin; furin and the prohormone convertases, Nakayama, 1997): 6-7

B1: wild-type S1P: hamster Site-1 protease expressed from cDNA (protein, UniProt Q9Z2A8 187-1052, looked up)
Membrane-bound transcription …: RAIPRQVAQTLQADVLWQMGYTGANVRVAVFDTGLSEKHPHFKNVKERTNWTNERTLDDGLGHGTFVAGVIASMRECQGFAPDAELHIFRVFTNNQVSYTSWFLDAFNYAILKKIDVLNLSIGGPDFMDHPFVDKVWELTANNVIMVSAIGNDGPLYGTLNNPADQMDVIGVGGIDFEDNIARFSSRGMTTWELPGGYGRVKPDIVTYGAGVRGSGVKGGCRALSGTSVASPVVAGAVTLLVSTVQKRELVNPASVKQALIASARRLPGVNMFEQGHGKLDLLRAYQILSSYKPQASLSPSYIDLTECPYMWPYCSQPIYYGGMPTIVNVTILNGMGVTGRIVDKPEWRPYLPQNGDNIEVAFSYSSVLWPWSGYLAISISVTKKAASWEGIAQGHIMITVASPAETEAKNGAEHTSTVKLPIKVKIIPTPPRSKRVLWDQYHNLRYPPGYFPRDNLRMKNDPLDWNGDHVHTNFRDMYQHLRSMGYFVEVLGAPFTCFDATQYGTLLMVDSEEEYFPEEIAKLRRDVDNGLSLVIFSDWYNTSVMRKVKFYDENTRQWWMPDTGGANIPALNELLSVWNMGFSDGLYEGEFALANHDMYYASGCSIAKFPEDGVVITQTFKDQGLEVLKQETAVVENVPILGLYQIPAEGGGRIVLYGDSNCLDDSHRQKDCFWLLDALLQYTSYGVTPPSLSHSGNRQRPPSGAGLAPPERMEGNHLHRYSKVLEAHLGDPKPRPLPACPHLSWAKPQPLNETAPSNLWKHQKLLSIDLDKVVLPNFRSNRPQVRPLSPGESGAWDIPGGIMPGRYNQEVGQTIPVFAFLGAMVALAFFVVQISKAKSRPKRRRPRAKRPQLTQQTHPPRTPSV
- PLAP activity in the culture medium [1]: increased
- cleavage of SREBP-2 by S1P or S1P mutant (SREBP-2): maximal cleavage
- cleavage of SREBP-2 by S1P or S1P mutant (SREBP-2; listed as Wild-type S1P): restored cleavage

B2: S1P-C: amino acids 187-1052 of SEQ ID NO:1 (protein)
chain: RAIPRQVAQTLQADVLWQMGYTGANVRVAVFDTGLSEKHPHFKNVKERTNWTNERTLDDGLGHGTFVAGVIASMRECQGFAPDAELHIFRVFTNNQVSYTSWFLDAFNYAILKKIDVLNLSIGGPDFMDHPFVDKVWELTANNVIMVSAIGNDGPLYGTLNNPADQMDVIGVGGIDFEDNIARFSSRGMTTWELPGGYGRVKPDIVTYGAGVRGSGVKGGCRALSGTSVASPVVAGAVTLLVSTVQKRELVNPASVKQALIASARRLPGVNMFEQGHGKLDLLRAYQILSSYKPQASLSPSYIDLTECPYMWPYCSQPIYYGGMPTIVNVTILNGMGVTGRIVDKPEWRPYLPQNGDNIEVAFSYSSVLWPWSGYLAISISVTKKAASWEGIAQGHIMITVASPAETEAKNGAEHTSTVKLPIKVKIIPTPPRSKRVLWDQYHNLRYPPGYFPRDNLRMKNDPLDWNGDHVHTNFRDMYQHLRSMGYFVEVLGAPFTCFDATQYGTLLMVDSEEEYFPEEIAKLRRDVDNGLSLVIFSDWYNTSVMRKVKFYDENTRQWWMPDTGGANIPALNELLSVWNMGFSDGLYEGEFALANHDMYYASGCSIAKFPEDGVVITQTFKDQGLEVLKQETAVVENVPILGLYQIPAEGGGRIVLYGDSNCLDDSHRQKDCFWLLDALLQYTSYGVNPPSLSHSGNRQRPPSGAGLAPPERMEGNHLHRYSKVLEAHLGDPKPRPLPACPHLSWAKPQPLNETAPSNLWKHQKLLSIDLDKVVLPNFRSNRPQVRPLSPGESGAWDIPGGIMPGRYNQEVGQTIPVFAFLGAMVALAFFVVQISKAKSRPKRRRPRAKRPQLTQQTHPPRTPSV
- cleavage of SREBP-2 by S1P or S1P mutant (SREBP-2): active

B3: 5411A: control S1P mutant, serine near catalytic triad mutated to alanine (protein, UniProt Q9Z2A8 187-1052, looked up, variant S411A)
Membrane-bound transcription …: RAIPRQVAQTLQADVLWQMGYTGANVRVAVFDTGLSEKHPHFKNVKERTNWTNERTLDDGLGHGTFVAGVIASMRECQGFAPDAELHIFRVFTNNQVSYTSWFLDAFNYAILKKIDVLNLSIGGPDFMDHPFVDKVWELTANNVIMVSAIGNDGPLYGTLNNPADQMDVIGVGGIDFEDNIARFSSRGMTTWELPGGYGRVKPDIVTYGAGVRGSGVKGGCRALAGTSVASPVVAGAVTLLVSTVQKRELVNPASVKQALIASARRLPGVNMFEQGHGKLDLLRAYQILSSYKPQASLSPSYIDLTECPYMWPYCSQPIYYGGMPTIVNVTILNGMGVTGRIVDKPEWRPYLPQNGDNIEVAFSYSSVLWPWSGYLAISISVTKKAASWEGIAQGHIMITVASPAETEAKNGAEHTSTVKLPIKVKIIPTPPRSKRVLWDQYHNLRYPPGYFPRDNLRMKNDPLDWNGDHVHTNFRDMYQHLRSMGYFVEVLGAPFTCFDATQYGTLLMVDSEEEYFPEEIAKLRRDVDNGLSLVIFSDWYNTSVMRKVKFYDENTRQWWMPDTGGANIPALNELLSVWNMGFSDGLYEGEFALANHDMYYASGCSIAKFPEDGVVITQTFKDQGLEVLKQETAVVENVPILGLYQIPAEGGGRIVLYGDSNCLDDSHRQKDCFWLLDALLQYTSYGVTPPSLSHSGNRQRPPSGAGLAPPERMEGNHLHRYSKVLEAHLGDPKPRPLPACPHLSWAKPQPLNETAPSNLWKHQKLLSIDLDKVVLPNFRSNRPQVRPLSPGESGAWDIPGGIMPGRYNQEVGQTIPVFAFLGAMVALAFFVVQISKAKSRPKRRRPRAKRPQLTQQTHPPRTPSV
- PLAP activity relative to wild-type levels [1]: 50-70 % of wild-type levels

— patent US6322962A, “Sterol-regulated Site-1 protease and assays of modulators thereof” (Board of Regents, The University of Texas System, priority 1999, dated 2001)
